Molecular target: Trehalase (Sus scrofa)
Test: Evaluated for the inhibition of trehalase from porcine kidneys

Ki: 180 nM
SMILES: OCC1=CC(NC2COC(CO)C(O)C2O)C(O)C(O)C1O (stereo unspecified) [6-(4,5-Dihydroxy-6-hydroxymethyl-tetrahydro-pyran-3-ylamino)-4-hydroxymethyl-cyclohex-4-ene-1,2,3-triol]

Source: BindingDB's records for doi:10.1016/0960-894X(95)00055-X (1995)
